Experimental findings from US9938273B2 (Plexxikon Inc., priority 2015, dated 2018) are described below.

pIC50: −log10 of the molar value.

One assay addresses T1, FLT3-D835Y (Homo sapiens, UniProt P36888, D835Y).
T1 construct: purchased Invitrogen PV3967
T1 sequence (P36888 27-993 D835Y): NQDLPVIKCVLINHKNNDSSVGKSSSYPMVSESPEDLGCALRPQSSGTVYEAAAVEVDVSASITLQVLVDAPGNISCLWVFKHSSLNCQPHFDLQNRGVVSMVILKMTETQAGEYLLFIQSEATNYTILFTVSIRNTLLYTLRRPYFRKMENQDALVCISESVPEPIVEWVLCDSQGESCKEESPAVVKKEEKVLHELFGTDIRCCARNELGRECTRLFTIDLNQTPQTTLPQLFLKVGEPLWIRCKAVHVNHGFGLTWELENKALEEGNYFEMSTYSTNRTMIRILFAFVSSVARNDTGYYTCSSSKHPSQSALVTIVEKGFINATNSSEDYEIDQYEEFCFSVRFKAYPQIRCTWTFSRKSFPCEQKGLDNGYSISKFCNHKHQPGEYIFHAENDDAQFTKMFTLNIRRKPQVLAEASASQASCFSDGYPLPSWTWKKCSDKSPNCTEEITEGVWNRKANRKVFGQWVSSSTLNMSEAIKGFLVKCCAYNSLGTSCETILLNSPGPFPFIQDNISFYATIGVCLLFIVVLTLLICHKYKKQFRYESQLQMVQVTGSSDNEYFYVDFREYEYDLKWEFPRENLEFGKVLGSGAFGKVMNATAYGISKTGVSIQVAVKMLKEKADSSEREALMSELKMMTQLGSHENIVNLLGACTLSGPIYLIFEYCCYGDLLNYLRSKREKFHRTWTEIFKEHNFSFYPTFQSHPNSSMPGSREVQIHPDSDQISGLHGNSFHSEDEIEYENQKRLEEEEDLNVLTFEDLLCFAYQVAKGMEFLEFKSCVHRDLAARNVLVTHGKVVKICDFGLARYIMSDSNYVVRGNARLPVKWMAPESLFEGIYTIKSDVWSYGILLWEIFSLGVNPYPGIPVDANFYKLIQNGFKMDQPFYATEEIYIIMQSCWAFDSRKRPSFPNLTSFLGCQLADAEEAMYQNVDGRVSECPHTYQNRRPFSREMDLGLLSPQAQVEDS
Kind of assay: AlphaScreen kinase assay with recombinant enzyme, FLT3-D835Y. It counts as biochemical. The conditions noted are these: 8pt, GMean. In a few lines:
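Inhibition was measured as a drop in AlphaScreen signal arising from phosphotyrosine-bead capture of a biotinylated poly(Glu4-Tyr) peptide (30 nM) phosphorylated by recombinant kinase. For IC50 work the stated final concentration was 10 μM for the FLT3 mutants and 100 μM for c-KIT.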

Assay [1] concerns MOLM-14 D835Y cells, FLT3 ITD and FLT3 D835Y. Kind of assay: Cell proliferation assay (CellTiter-Glo), MOLM-14 D835Y. It counts as cell-based. The conditions noted are these: Homo sapiens, 72 h, 3d-Growth, GMean. An outline of the steps: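 MOLM-14 AML cells (endogenous FLT3 ITD, AC220-selected D835Y or F691L variants) or murine Ba/F3 expressing full-length FLT3 ITD/D835Y, without IL-3 for FLT3 dependence, 1×10^4 cells/well. Eight-point 1:3 series from 1 μM final, 0.2% DMSO, 3 days at 37 °C. CellTiter-Glo luminescence (ATP) gave IC50.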

Consider `NC1CCN(C(=O)c2n[nH]c3ccc(-c4cnc5[nH]c(-c6ccccc6)cc5c4)cc23)CC1` [Compound P-0012, (4-amino-1-piperidyl)-[5-(2-phenyl-1H-pyrrolo[2,3-b]pyridin-5-yl)-1H-indazol-3-yl]methanone], for which the pIC50 (at FLT3-D835Y; in assay [1]) was 5.00 to 10.00 each time. `NC1CCN(C(=O)c2cccc(-c3cnc4[nH]c(-c5ccccc5)cc4c3)n2)CC1` [Compound P-0013, (4-amino-1-piperidyl)-[6-(2-phenyl-1H-pyrrolo[2,3-b]pyridin-5-yl)-2-pyridyl]methanone]: the pIC50 (on FLT3-D835Y; in assay [1]) was 5.00 to 10.00 throughout. As to `NC1CCC(NC(=O)c2cccc(-c3cnc4[nH]c(-c5ccccc5)cc4c3)n2)CC1` (stereo not shown) [Compound P-0018, N-(4-aminocyclohexyl)-6-(2-phenyl-1H-pyrrolo[2,3-b]pyridin-5-yl)pyridine-2-carboxamide], the pIC50 (at FLT3-D835Y; in assay [1]) was 5.00 to 10.00 in each case. Regarding `CNC1CCN(C(=O)c2cccc(-c3cnc4[nH]c(-c5ccccc5)cc4c3)n2)C1` (stereo not shown) [Compound P-0040, [3-(methylamino)pyrrolidin-1-yl]-[6-(2-phenyl-1H-pyrrolo[2,3-b]pyridin-5-yl)-2-pyridyl]methanone], the pIC50 (at FLT3-D835Y; in assay [1]) was 5.00 to 10.00 throughout. In the case of `CNC1CCN(C(=O)c2cccc(-c3cnc4[nH]c(-c5cn(C)nc5C)cc4c3)n2)C1` (stereo not shown) [Compound P-0049, [6-[2-(1,3-dimethylpyrazol-4-yl)-1H-pyrrolo[2,3-b]pyridin-5-yl]-2-pyridyl]-[3-(methylamino)pyrrolidin-1-yl]methanone], the pIC50 (at FLT3-D835Y; in assay [1]) was 5.00 to 10.00 in each case. In the case of `CNC1CN(C(=O)c2cccc(-c3cnc4[nH]c(-c5ccccc5)cc4c3)n2)C1` [Compound P-0052, [3-(methylamino)azetidin-1-yl]-[6-(2-phenyl-1H-pyrrolo[2,3-b]pyridin-5-yl)-2-pyridyl]methanone], the pIC50 (on FLT3-D835Y; in assay [1]) was 5.00 to 10.00 throughout.

For the compound `CNC1CCN(C(=O)c2cccc(-c3cnc4[nH]c(-c5ccc(F)cc5)cc4c3)n2)C1` (stereo not shown) [Compound P-0055, [6-[2-(4-fluorophenyl)-1H-pyrrolo[2,3-b]pyridin-5-yl]-2-pyridyl]-[3-(methylamino)pyrrolidin-1-yl]methanone], the pIC50 (at FLT3-D835Y; in assay [1]) was 5.00 to 10.00 each time. As for `CN[C@@H]1CCN(C(=O)c2cccc(-c3cnc4[nH]c(-c5ccccc5)cc4c3)n2)C1` [Compound P-0058, [(3R)-3-(methylamino)pyrrolidin-1-yl]-[6-(2-phenyl-1H-pyrrolo[2,3-b]pyridin-5-yl)-2-pyridyl]methanone], the pIC50 (at FLT3-D835Y; in assay [1]) was 5.00 to 10.00 throughout. For the compound `CNC1CCN(C(=O)c2cccc(-c3cnc4[nH]c(-c5ccnc(OC)c5)cc4c3)n2)C1` (stereo not shown) [Compound P-0060, [6-[2-(2-methoxy-4-pyridyl)-1H-pyrrolo[2,3-b]pyridin-5-yl]-2-pyridyl]-[3-(methylamino)pyrrolidin-1-yl]methanone], the pIC50 (at FLT3-D835Y; in assay [1]) was 5.00 to 10.00 in each case. On to `CNC1CCN(C(=O)c2cccc(-c3cnc4[nH]c(-c5cnn(CC(F)(F)F)c5)cc4c3)n2)C1` (stereo not shown) [Compound P-0061, [3-(methylamino)pyrrolidin-1-yl]-[6-[2-[1-(2,2,2-trifluoroethyl)pyrazol-4-yl]-1H-pyrrolo[2,3-b]pyridin-5-yl]-2-pyridyl]methanone], for which the pIC50 (at FLT3-D835Y; in assay [1]) was 5.00 to 10.00 throughout.

For `CNC1CCN(C(=O)c2cccc(-c3cnc4[nH]c(-c5cccc(C#N)c5)cc4c3)n2)C1` (stereo not shown) [Compound P-0062, 3-[5-[6-[3-(methylamino)pyrrolidine-1-carbonyl]-2-pyridyl]-1H-pyrrolo[2,3-b]pyridin-2-yl]benzonitrile], the pIC50 (on FLT3-D835Y; in assay [1]) was 5.00 to 10.00 each time. As for `CNC1CCN(S(=O)(=O)c2cccc(-c3cnc4[nH]c(-c5ccccc5)cc4c3)n2)C1` (stereo not shown) [Compound P-0063, N-methyl-1-[[6-(2-phenyl-1H-pyrrolo[2,3-b]pyridin-5-yl)-2-pyridyl]sulfonyl]pyrrolidin-3-amine], the pIC50 (at FLT3-D835Y; in assay [1]) was 5.00 to 10.00 each time. `CN1CCC(NC(=O)c2cccc(-c3cnc4[nH]c(-c5ccccc5)cc4c3)n2)C1` (stereo not shown) [Compound P-0064, N-(1-methylpyrrolidin-3-yl)-6-(2-phenyl-1H-pyrrolo[2,3-b]pyridin-5-yl)pyridine-2-carboxamide]: the pIC50 (at FLT3-D835Y; in assay [1]) was 5.00 to 10.00 in each case. `CNC1CCN(C(=O)c2cccc(-c3cnc4[nH]c(C5=CCC(C)(C)CC5)cc4c3)n2)C1` (stereo not shown) [Compound P-0070, [6-[2-(4,4-dimethylcyclohexen-1-yl)-1H-pyrrolo[2,3-b]pyridin-5-yl]-2-pyridyl]-[3-(methylamino)pyrrolidin-1-yl]methanone]: the pIC50 (at FLT3-D835Y; in assay [1]) was 5.00 to 10.00 each time. Consider `O=S(=O)(NC1CNC1)c1cccc(-c2cnc3[nH]c(-c4ccccc4)cc3c2)n1` [Compound P-0071, N-(azetidin-3-yl)-6-(2-phenyl-1H-pyrrolo[2,3-b]pyridin-5-yl)pyridine-2-sulfonamide], for which the pIC50 (on FLT3-D835Y; in assay [1]) was 5.00 to 10.00 in each case. As to `O=S(=O)(NC1CCNC1)c1cccc(-c2cnc3[nH]c(-c4ccccc4)cc3c2)n1` (stereo not shown) [Compound P-0072, 6-(2-phenyl-1H-pyrrolo[2,3-b]pyridin-5-yl)-N-pyrrolidin-3-yl-pyridine-2-sulfonamide], the pIC50 (at FLT3-D835Y; in assay [1]) was 5.00 to 10.00 throughout. Turning to `NC1CCN(S(=O)(=O)c2cccc(-c3cnc4[nH]c(-c5ccccc5)cc4c3)n2)CC1` [Compound P-0073, 1-[[6-(2-phenyl-1H-pyrrolo[2,3-b]pyridin-5-yl)-2-pyridyl]sulfonyl]piperidin-4-amine], the pIC50 (on FLT3-D835Y; in assay [1]) was 5.00 to 10.00 throughout. `CN1CC(NC(=O)c2cccc(-c3cnc4[nH]c(-c5ccccc5)cc4c3)n2)C1` [Compound P-0075, N-(1-methylazetidin-3-yl)-6-(2-phenyl-1H-pyrrolo[2,3-b]pyridin-5-yl)pyridine-2-carboxamide]: the pIC50 (at FLT3-D835Y; in assay [1]) was 5.00 to 10.00 throughout.

On to `NC1(C(F)(F)F)CCN(C(=O)c2cccc(-c3cnc4[nH]c(-c5ccccc5)cc4c3)n2)C1` (stereo not shown) [Compound P-0077, [3-amino-3-(trifluoromethyl)pyrrolidin-1-yl]-[6-(2-phenyl-1H-pyrrolo[2,3-b]pyridin-5-yl)-2-pyridyl]methanone], for which the pIC50 (on FLT3-D835Y; in assay [1]) was 5.00 to 10.00 throughout. Consider `N#CC1CCN(C(=O)c2cccc(-c3cnc4[nH]c(-c5ccc(F)cc5)cc4c3)n2)C1` (stereo not shown) [Compound P-0116, 1-[6-[2-(4-fluorophenyl)-1H-pyrrolo[2,3-b]pyridin-5-yl]pyridine-2-carbonyl]pyrrolidine-3-carbonitrile], for which, at FLT3-D835Y, the pIC50 is 5.00 to 10.00.

On to `CC(C)(C#N)NC(=O)c1cccc(-c2cnc3[nH]c(-c4cscn4)cc3c2)n1` [Compound P-0167, N-(1-cyano-1-methyl-ethyl)-6-(2-thiazol-4-yl-1H-pyrrolo[2,3-b]pyridin-5-yl)pyridine-2-carboxamide], for which the pIC50 at FLT3-D835Y is 5.00 to 10.00. For `CC(C)(C#N)NC(=O)c1cccc(-c2cnc3[nH]c(-c4cnn(C(=O)C5CC5)c4)cc3c2)n1` [Compound P-0184, N-(1-cyano-1-methyl-ethyl)-6-[2-[1-(cyclopropanecarbonyl)pyrazol-4-yl]-1H-pyrrolo[2,3-b]pyridin-5-yl]pyridine-2-carboxamide], the pIC50 at FLT3-D835Y is 5.00 to 10.00. On to `CC(C)(C#N)NC(=O)c1cccc(-c2cnc3[nH]c(-c4cnn(C(F)F)c4)c(Cl)c3c2)n1` [Compound P-0185, 6-[3-chloro-2-[1-(difluoromethyl)pyrazol-4-yl]-1H-pyrrolo[2,3-b]pyridin-5-yl]-N-(1-cyano-1-methyl-ethyl)pyridine-2-carboxamide], for which, on FLT3-D835Y, the pIC50 was 5.00 to 10.00. Still for that read-out and setting: in the case of `CC(C)(C#N)NC(=O)c1cccc(-c2cnc3[nH]c(C4=CCS(=O)(=O)CC4)cc3c2)n1` [Compound P-0186, N-(1-cyano-1-methyl-ethyl)-6-[2-(1,1-dioxo-3,6-dihydro-2H-thiopyran-4-yl)-1H-pyrrolo[2,3-b]pyridin-5-yl]pyridine-2-carboxamide] it was 5.00 to 10.00.
